Laboratory results from paper PMC4905667, “Discovery of Small-Molecule Modulators of the Human Y4 Receptor” (PLoS ONE, 2016).
Where two headings read alike, the source gives them in different places. Values belong to the compound of their own block, whether it stands above or below them. No end group written: not given here.

Assays:
human Y4R = molecular target: T1, human Y4R (Homo sapiens, UniProt P50391); assay: Inositol phosphate (IP3) accumulation assay, Y4R stimulated with PP; type: cell-based; details: for Effect of compound on potency (pEC50) of PP at Y4R (in words): 30 μM compound vs DMSO, full PP concentration-response; for EC50 / Y4R PAM activity, potentiation of a PP EC20 response (in words): IP accumulation; for EC50: three independent experiments in duplicate; for Y4R PAM activity, potentiation of a PP EC20 response (in words): concentration-dependent; for IP accumulation following stimulation of Y4R (DMSO set to 100%): 10 μM compound, 1 nM PP, COS-7 cells with Δ6Gαqi4myr, mean ± SEM, n = 2
T1 construct: expressed in transfected cells
Description: (§1) COS-7 cells stably expressing hY1/2/4/5R_eYFP fusion protein and the Δ6Gαqi4myr chimeric Gα-protein were prepared as previously described. The hY1/2/4/5R_eYFP cDNA was subcloned into MCS1 of a pVitro2-MCS vector carrying a hygromycin resistance gene; the Δ6Gαqi4myr cDNA was subcloned into MCS1 of a pVitro2-MCS vector carrying a G418 resistance gene (Invivogen, San Diego, CA).
(§2) COS-7 (African Green Monkey kidney) cells stably expressing the hY1/2/4/5R_eYFP fusion protein and the Δ6Gαqi4myr chimeric Gα-protein were cultured at 37°C in high glucose Dulbecco’s Modified Eagle Medium (DMEM, Life Technologies, Carlsbad, CA) with glutamine and sodium pyruvate (Life Technologies/Lonza) supplemented with 10% (w/v) FBS (Invitrogen, Carlsbad, CA), 1.5 mg/mL G418-sulfate (Amresco, Solon, OH) and 133 μg/ml hygromycin (Invivogen).
(§3) Cells were seeded into 48-well plates and incubated for 24 hours at 37°C / 5% CO2. Afterwards, cells were labeled for at least 16 hours in DMEM+10% (w/v) FBS containing 2 μCi/ml myo-[2- ^3H(N)]-inositol (PerkinElmer) at 37°C / 5% CO2. Labeling solution was aspirated and cells were washed with 20 μL/well DMEM + 10 mM LiCl (Sigma-Aldrich; DMEM/LiCl) and stimulated with the peptide solutions and compounds. Specifically, 50 μl/well DMEM/LiCl were added after washing, followed by addition of 50 μl/well test compound in DMEM/LiCl (3-fold over the final concentration) and addition of 50 μl/well peptide solution (3-fold over the final concentration) in DMEM/LiCl. Stimulation was performed for 2 hours at 37°C / 5% CO2. Cell lysis, subsequent sample preparation and radiometric detection was performed as described previously.
(§4) Data analysis was performed with GraphPad Prism 5.03 software (GraphPad Software, San Diego, CA). Calculation of EC50 and pEC50 was performed using standard non-linear regression (log(agonist) vs. response, three parameters). All data were normalized to the corresponding control curve in the absence of the modulator. Final concentration response curves were created by calculating the mean and SEM of all individual experiments for each data point. Statistical evaluation was performed using two-way ANOVA and Bonferroni post test with * P ≤ 0.05, ** P ≤ 0.01, *** P ≤ 0.001.
(§5) Until now, no small molecule agonists of Y receptors have been described. Based on this lack of any structure activity data, identification of Y4R PAMs was initiated with a Ca^2+-flux-based HTS approach. An initial pilot screen was performed with the ‘Spectrum collection’, a small scale library with 2000 compounds comprising synthetic small molecules as well as purified natural products covering a range of known biologically active properties. This pilot screen yielded 65 putative PAMs. All initial hits were retested for off-target effects in wildtype COS-7 cells and the PAM effect was validated via concentration-dependent potentiation of a submaximal PP response. After eliminating structures that show off-target effects, seven compounds with potencies in the micromolar range were identified (S1 Fig) for further investigation. Validation of the Y4R PAM activity was performed with a well-established assay system for Y receptor activation studies, based on cellular accumulation of inositol phosphate. Furthermore, the compound activity at Y1R, Y2R and Y5R was examined at this stage of Y4R PAM identification. Therefore, Y receptor activation with an agonist ligand concentration causing a submaximal response (1 nM, Fig 1) was monitored in presence and absence of test compound. This experimental setup allows the detection of potential compound-induced shifts of the concentration-response curve and parallel testing of all compounds on all Y receptor subtypes. […]

human Y1R = system: T2, human Y1R; assay: Inositol phosphate (IP3) accumulation assay, Y1R stimulated with NPY; type: cell-based; details: for Effect of compound on potency (pEC50) of NPY at Y1R (in words): 30 μM compound vs DMSO, full NPY concentration-response
T2 construct: expressed in transfected cells
Description: as §1, §2, §3, §4, §5

human Y2R = system: T3, human Y2R; assay: Inositol phosphate (IP3) accumulation assay, Y2R stimulated with NPY; type: cell-based; details: for Effect of compound on potency (pEC50) of NPY at Y2R (in words): 30 μM compound vs DMSO, full NPY concentration-response
T3 construct: expressed in transfected cells
Description: as §1, §2, §3, §4, §5

[1] = system: db/db mice and high fat diet induced obesity in mice; set-up: method as in PMID 25282357; details: fed to mice, high nanomolar blood concentrations; cited from earlier work
Y4R = system: T4, Y4R; assay: HTS calcium flux assay; type: cell-based, human; details: Ca2+ flux, COS-7 hY4R_eYFP Δ6Gαqi4myr
T4 construct: expressed in transfected cells
Description: as §1, §2
The purities of compounds in the Vanderbilt HTS facility are more than 95% as confirmed by the supplier. A total of 35,288 compounds were tested for their ability to modulate the Y4R activation in conjunction with the Vanderbilt HTS facility. In a pilot HTS experiment, 2000 compounds (spectrum collection, MicroSource Discovery Systems, Inc., Gaylordsville, CT) were screened for modulation of the Y4R. […]

human Y5R = system: T5, human Y5R; assay: Inositol phosphate (IP3) accumulation assay, Y5R stimulated with NPY; type: cell-based; details: for Effect of compound on potency (pEC50) of NPY at Y5R (in words): 30 μM compound vs DMSO, full NPY concentration-response
T5 construct: expressed in transfected cells
Description: as §1, §2, §3, §4
as §5, with “Furthermore, the compound activity at Y1R, Y2R and Y5R was examined at this stage of Y4R PAM identification.” left out, “compound.” for “compound. This experimental setup allows the detection of potential compound-induced shifts of the concentration-response curve and parallel testing of all compounds on all Y receptor subtypes.”

[2] = HPLC analysis of stability in DMEM assay conditions; type: physicochemical; details: pre-incubated in DMEM for 2 hours at 37°C
Description: Supplementary file pone.0157146.s003.png: S3 Fig HPLC analysis of VU0118748 stability in DMEM assay conditions. […] To test the stability of VU0118748 in the assay conditions, the compound was pre-incubated in DMEM for 2 hours at 37°C. […] (PNG) Click here for additional data file.

[3] = read-out: EC50, potentiation of a PP EC20 response at Y4R
[4] = read-out: pEC50 ± SEM, potentiation of a PP EC20 response at Y4R (converted)
[5] = 10 μM compound, 1 nM NPY, mean ± SEM, n = 2

T1 sequence (P50391 whole entry): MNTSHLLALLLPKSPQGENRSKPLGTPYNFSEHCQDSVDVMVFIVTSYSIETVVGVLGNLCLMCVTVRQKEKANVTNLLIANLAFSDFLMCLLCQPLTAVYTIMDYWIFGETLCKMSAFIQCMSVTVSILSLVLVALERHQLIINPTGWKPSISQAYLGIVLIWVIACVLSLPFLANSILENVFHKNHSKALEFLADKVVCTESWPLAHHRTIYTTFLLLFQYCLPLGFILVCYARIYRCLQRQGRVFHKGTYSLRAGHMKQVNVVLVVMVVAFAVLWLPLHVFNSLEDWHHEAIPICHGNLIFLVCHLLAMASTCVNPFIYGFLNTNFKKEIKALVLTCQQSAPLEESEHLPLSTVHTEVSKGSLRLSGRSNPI

Compound: NCCO.O=C(Nc1ccc([N+](=O)[O-])cc1Cl)c1cc(Cl)ccc1O [ethanolamine salt form of Niclosamide]
Efficacy on diabetic symptoms (plasma insulin decline, insulin response, high fat diet induced obesity) [1]: efficacious

Compound: O=C(Nc1ccc([N+](=O)[O-])cc1)c1cc(Br)ccc1O [VU0048913]
Effect of compound on potency (pEC50) of PP at Y4R (in words) (human Y4R): increase the potency of PP
EC50 (human Y4R; [3]): 566 nM
EC50 (human Y4R; [4]): 575 nM
Effect of compound on potency (pEC50) of NPY at Y1R (in words) (human Y1R): no effect
Effect of compound on potency (pEC50) of NPY at Y2R (in words) (human Y2R): slight PAM effect

Compound: pancreatic polypeptide (APLEPVYPGDNATPEQMAQYAADLRRYINMLTRPRY; ends and bridges not checked; UniProt P01298 30-65, looked up) [PP, native peptide ligand of the Y4R]
PP EC20 (Y4R): 0.055 ± 0.027 nM
PP EC80 (Y4R): 0.836 ± 0.033 nM

Compound: COc1ccc(/C=C/C(=O)c2ccc(O)cc2O)cc1OC [VU0244224]
IP accumulation following stimulation of Y4R (DMSO set to 100%) (human Y4R): 127 ± 19%
Effect on Y1R signal transduction (in words) (human Y1R; 10 μM compound, 1 nM NPY): no effects
Effect on Y5R signal transduction (in words) (human Y5R; 10 μM compound, 1 nM NPY): no effects
Effect on Y2R signal transduction (in words) (human Y2R; 10 μM compound, 1 nM NPY): no effects

Compound: O=C(Oc1ccc(Cl)cc1C(=O)Nc1ccc([N+](=O)[O-])cc1Cl)c1ccc([N+](=O)[O-])cc1 [VU0118748]
Compound still intact [2]: 95%
Effect of compound on potency (pEC50) of PP at Y4R (in words) (human Y4R): increase the potency of PP
EC50 (human Y4R; [3]): 473 nM
EC50 (human Y4R; [4]): 437 nM
Effect of compound on potency (pEC50) of NPY at Y1R (in words) (human Y1R): no effect
Effect of compound on potency (pEC50) of NPY at Y5R (in words) (human Y5R): negative allosteric effect

Compound: O=C(Nc1ccc([N+](=O)[O-])cc1Cl)c1cc(Cl)ccc1O [Niclosamide, reference compound]
IP accumulation following stimulation of Y4R (DMSO set to 100%) (human Y4R): 185.7 ± 23.5%
Effect of compound on potency (pEC50) of PP at Y4R (in words) (human Y4R): increase the potency of PP
EC50 (human Y4R; [3]): 620 nM
Increase in the potency of PP at Y4R (EC50 shift) (human Y4R; in presence of compound): 4 fold
IP accumulation following stimulation of Y1R (DMSO set to 100%) (human Y1R; [5]): 125.4 ± 14.6%
Effect of compound on potency (pEC50) of NPY at Y1R (in words) (human Y1R): small PAM effect
IP accumulation following stimulation of Y5R (DMSO set to 100%) (human Y5R; [5]): 83.4 ± 5.9%
Effect of compound on potency (pEC50) of NPY at Y5R (in words) (human Y5R): negative allosteric effect
IP accumulation following stimulation of Y2R (DMSO set to 100%) (human Y2R; [5]): 88.5 ± 6.2%
Effect of compound on potency (pEC50) of NPY at Y2R (in words) (human Y2R): no effect

Compound: Nc1ncnc2c1ncn2[C@@H]1O[C@H](CO)[C@@H](O)[C@H]1O [adenosine, reference compound]
IP accumulation following stimulation of Y4R (DMSO set to 100%) (human Y4R): 120 ± 11%
Effect on Y1R signal transduction (in words) (human Y1R; 10 μM compound, 1 nM NPY): slightly decrease
Effect on Y5R signal transduction (in words) (human Y5R; 10 μM compound, 1 nM NPY): slightly decrease

Further lines, results first:

Effect of compound on potency (pEC50) of PP at Y4R (in words) (human Y4R): increase the potency of PP
EC50 (human Y4R; [3]): > 10000 nM
Effect of compound on potency (pEC50) of NPY at Y1R (in words) (human Y1R): no effect
Effect of compound on potency (pEC50) of NPY at Y2R (in words) (human Y2R): slight PAM effect
Compound: Cc1ccc(NC(=O)c2cc([N+](=O)[O-])ccc2O)cc1 [VU0048992]

Effect of compound on potency (pEC50) of PP at Y4R (in words) (human Y4R): increase the potency of PP
EC50 (human Y4R; [3]): > 10000 nM
Effect of compound on potency (pEC50) of NPY at Y1R (in words) (human Y1R): no effect
Compound: O=C(Nc1ccc(Cl)cc1)c1cc([N+](=O)[O-])ccc1O [VU0049150]

Y4R PAM activity, potentiation of a PP EC20 response (in words) (human Y4R): inactive
Compound: O=C(Nc1ccc([N+](=O)[O-])cc1Cl)c1ccncc1 [VU0357475]

Y4R PAM activity, potentiation of a PP EC20 response (in words) (human Y4R): inactive
Effect of compound on potency (pEC50) of NPY at Y2R (in words) (human Y2R): slight PAM effect
Compound: O=C(Nc1cc(C(F)(F)F)ccc1Cl)c1ccc(F)c([N+](=O)[O-])c1 [VU0114795]
